# Laboratory results from patent US20060228313A1, “Method of cosmetic depigmentation care by applying at least one aurone” (Coletica, priority 2005, published 2006).
# Assays:
# Human tyrosinase = target: T1, Human tyrosinase (Homo sapiens, UniProt P14679); assay: Inhibition of human tyrosinase in a monolayer after application of the actives on normal human melanocytes; type: cell-based; conditions: for Inhibition of human tyrosinase after application on normal human melanocytes, percentage inhibition: 24 hours
# T1 construct: Normal human melanocytes (originating from abdominal plasty) are sown in a 24-well plate; endogenous in cells; host or cells: normal human melanocytes (abdominal plasty; donors of light, brown and black phototype)
# T1 sequence (P14679 19-529): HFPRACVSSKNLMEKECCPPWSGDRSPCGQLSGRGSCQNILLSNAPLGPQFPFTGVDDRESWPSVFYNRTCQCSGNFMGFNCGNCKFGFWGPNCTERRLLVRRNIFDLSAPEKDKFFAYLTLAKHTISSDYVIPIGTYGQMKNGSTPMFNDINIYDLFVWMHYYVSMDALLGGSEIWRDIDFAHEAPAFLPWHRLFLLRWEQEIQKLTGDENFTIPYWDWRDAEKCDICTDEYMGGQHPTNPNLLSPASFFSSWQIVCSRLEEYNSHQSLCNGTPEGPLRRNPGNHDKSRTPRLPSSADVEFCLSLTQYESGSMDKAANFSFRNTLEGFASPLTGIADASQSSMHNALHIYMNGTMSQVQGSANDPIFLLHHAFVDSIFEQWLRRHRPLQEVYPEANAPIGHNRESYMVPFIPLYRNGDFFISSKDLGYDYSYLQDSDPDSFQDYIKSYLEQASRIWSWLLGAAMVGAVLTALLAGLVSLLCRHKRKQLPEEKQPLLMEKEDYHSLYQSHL
# Method: Normal human melanocytes (originating from abdominal plasty) are sown in a 24-well plate at the rate of 80,000 cells per well. They are cultivated up to confluence and the actives are applied for 24 hours in the culture media. After 24 hours, the media are removed and the melanocytes are picked up by mechanical action. An extraction is made by heat shock and the supernatants are then recovered and then incubated with MBTH (Sigma) and L-Dopa (Sigma). The OD at 490 nm is measured after 30 minutes, and the inhibition is of the tyrosinase is calculated by comparing the OD at 490 nm to the protein level (measured in each culture well) of the test with respect to the ratio: OD 490 nm/concentration of protein of the negative control (non-treated control). […]
# normal human melanocytes = assay: Cytotoxicity on normal human melanocytes, PNPP determination; type: cell-based; conditions: 10^−5 M, 24 hours
# Method: The cytotoxicity of the actives is studied on normal human melanocytes in a 24-well plate by a determination with PNPP(P-nitrophenyl phosphate), a substance which is converted into p-nitrophenol by the intracellular acid phosphatases of viable cells.
# The absorbance of p-nitrophenol at 405 nm is directly proportional to the number of viable cells.
# The actives are tested at 2 different concentrations (10^−4 M and 10^−5 M) and are added to the culture medium and are incubated at 37° C. for 24 hours. The determination with PNPP is carried out on a cell mat and the results are expressed as a percentage viability with respect to the negative control (non-treated wells).
Structure (SMILES),"Inhibition of human tyrosinase after application on normal human melanocytes, percentage inhibition (Human tyrosinase; 10^−4M) [%]","Inhibition of human tyrosinase after application on normal human melanocytes, percentage inhibition (Human tyrosinase; 10^−5M) [%]",Percentages viability on normal human melanocytes (normal human melanocytes) [%],"Inhibition of human tyrosinase on normal human melanocytes, result in words (Human tyrosinase; model of Example 15)"
CCc1ccccc1/C=C1\Oc2cc(O)cc(O)c2C1=O [Example 7l],0,6.1,–,–
"Cc1cc(C)c(/C=C2\Oc3cc(O)cc(O)c3C2=O)[nH]1 [Example 7t, (Z)-4,6-Dihydroxy-2-[(3,5-dimethylpyrrole)methylene]benzofuran-3(2H)-one]",26.4,0,–,–
"O=C1/C(=C/c2cccs2)Oc2cc(O)cc(O)c21 [Example 7p, (Z)-4,6-Dihydroxy-2-[(thiophene)methylene]benzofuran-3(2H)-one]",35.2,15.3,–,–
"O=C1/C(=C/c2ccco2)Oc2cc(O)cc(O)c21 [Example 7m, (Z)-4,6-Dihydroxy-2-[(furan)methylene]benzofuran-3(2H)-one]",23.6,6.4,–,–
"COc1cc(OC)c2c(c1)O/C(=C\c1ccc(S(=O)(=O)O)cc1S(=O)(=O)O)C2=O [Example 5f, (Z)-4,6-dimethoxy-2-(2′,4′-disulfonatebenzylidene)benzofuran-3(2H)-one]",9.36,2.88,–,–
"Cc1ccc(/C=C2\Oc3cc(O)cc(O)c3C2=O)s1 [Example 7q, (Z)-4,6-Dihydroxy-2-[(5-methylthiophene)methylene]benzofuran-3(2H)-one]",16.4,7,–,–
"COc1cc(OC)c2c(c1)O/C(=C\c1ccc[nH]1)C2=O [Example 5s, (Z)-4,6-Dimethoxy-2-[(pyrrole)methylene]benzofuran-3(2H)-one]",13.7,0,–,–
"COc1cc(OC)c2c(c1)O/C(=C\c1ccc(S(=O)(=O)O)cc1)C2=O [Example 5e, (Z)-4,6-dimethoxy-2-(4′-sulfonatebenzylidene)benzofuran-3(2H)-one]",0,1.44,–,–
"CCc1ccc(/C=C2\Oc3cc(OC)cc(OC)c3C2=O)cc1 [Example 5b, (Z)-4,6-dimethoxy-2-(4′-ethylbenzylidene)benzofuran-3(2H)-one]",–,–,99.62,–
"COc1cc(O)c2c(c1)O/C(=C\c1ccccc1)C2=O [Example 6, (Z)-2-Benzylidene-4-hydroxy-6-methoxybenzofuran-3(2H)-one]",–,–,121.56,–
"CCc1ccc(/C=C2\Oc3cc(OC)cc(OC)c3C2=O)o1 [Example 5n, (Z)-4,6-Dimethoxy-2-[(5-ethylfuran)methylene]benzofuran-3(2H)-one]",7.8,0,–,–
"CCc1ccccc1/C=C1\Oc2cc(O)ccc2C1=O [Example 3b, (Z)-2-(2′-Ethyl)Benzylidene-6-Hydroxybenzofuran-3(2H)-one]",0,0,–,–
"O=C1/C(=C/c2ccc[nH]2)Oc2cc(O)cc(O)c21 [Example 7s, (Z)-4,6-Dihydroxy-2-[(pyrrole)methylene]benzofuran-3(2H)-one]",22.8,9.1,–,–
"CCc1ccc(/C=C2\Oc3cc(O)ccc3C2=O)cc1 [Example 3a, (Z)-2-(4′-Ethyl)Benzylidene-6-Hydroxybenzofuran-3(2H)-one]",0,23.9,–,–
"CCc1ccc(/C=C2\Oc3cc(OC)cc(OC)c3C2=O)s1 [Example 5r, (Z)-4,6-Dimethoxy-2-[(5-ethylthiophene)methylene]benzofuran-3(2H)-one]",11.9,2.1,–,–
"COc1cc(OC)c2c(c1)O/C(=C\c1cccs1)C2=O [Example 5p, (Z)-4,6-Dimethoxy-2-[(thiophene)methylene]benzofuran-3(2H)-one]",31.3,6.4,–,–
CC(C)c1ccc(/C=C2\Oc3cc(O)cc(O)c3C2=O)cc1 [Example 7i],0,31.86,–,–
O=C1/C(=C/c2ccc(S(=O)(=O)O)cc2)Oc2cc(O)cc(O)c21 [Example 7e],0,4.83,–,–
"COc1cc(OC)c2c(c1)O/C(=C\c1ccc(C)s1)C2=O [Example 5q, (Z)-4,6-Dimethoxy-2-[(5-methylthiophene)methylene]benzofuran-3(2H)-one]",4.8,0,–,–
"O=c1cc(-c2ccc(O)cc2)oc2cc(O)cc(O)c12 [Apigenin, reference compound]",–,–,–,do not inhibit tyrosinase
"COc1cc(OC)c2c(c1)O/C(=C\c1[nH]c(C)cc1C)C2=O [Example 5t, (Z)-4,6-Dimethoxy-2-[(3,5-dimethylpyrrole)methylene]benzofuran-3(2H)-one]",5.1,0,–,–
"CCc1ccc(/C=C2\Oc3cc(O)cc(O)c3C2=O)o1 [Example 7n, (Z)-4,6-Dihydroxy-2-[(5-ethylfuran)methylene]benzofuran-3(2H)-one]",28.5,13.4,–,–
O=C1/C(=C/c2ccccc2O)Oc2cc(O)cc(O)c21 [Example 9c],12.85,4.32,–,–
CCCc1ccc(/C=C2\Oc3cc(O)cc(O)c3C2=O)cc1 [Example 7h],5.43,26.88,–,–
CC(C)(C)c1ccc(/C=C2\Oc3cc(O)cc(O)c3C2=O)cc1 [Example 7k],0,25.1,–,–
"CCc1ccc(/C=C2\Oc3cc(O)cc(O)c3C2=O)s1 [Example 7r, (Z)-4,6-Dihydroxy-2-[(5-ethylthiophene)methylene]benzofuran-3(2H)-one]",13.8,0,–,–
"COc1cc(OC)c2c(c1)O/C(=C\c1ccco1)C2=O [Example 5m, (Z)-4,6-Dimethoxy-2-[(furan)methylene]benzofuran-3(2H)-one]",19.5,6.4,–,–
"Cc1cc(/C=C2\Oc3cc(O)cc(O)c3C2=O)oc1C [Example 7o, (Z)-4,6-Dihydroxy-2-[(4,5-dimethylfuran)methylene]benzofuran-3(2H)-one]",13.6,4.5,–,–
"COc1cc(OC)c2c(c1)O/C(=C\c1cc(C)c(C)o1)C2=O [Example 5o, (Z)-4,6-Dimethoxy-2-[(4,5-dimethylfuran)methylene]benzofuran-3(2H)-one]",23.2,12.1,–,–
